This series can be described thus: In vitro plasma stability. As to conditions: C57BL/6, mouse, read-out: half-life t1/2 (in vitro plasma) (converted). In kind it is in vitro ADME, mouse (C57BL/6). How it is done: Each aliquot (50 μl) was mixed with 150 μl methanol, vortexed, spun, removed the supernatant and reconstituted the pellet with 150 μl 10% formic acid in water. The sample was vortexed and spun and a 100 μl aliquot was taken, diluted 1:1 with 10 mM ammonium bicarbonate, and analyzed by LC-MS/MS. Using the remaining vs. time dataset, we performed a first-order decay analysis by fitting a linear regression to the natural log-transformed percent remaining values (excluding 0% and t = 0 anchor point) to plot the graph.

The results in this text go back to PMC12869562 (Research Square, 2026).

No end group written: not given here.

For SSMKLSFRARAYGFRGPGPQL [CST, Catestatin], the half-life at 5 μg/ml is 5.56 h.
